For orientation: IC50 means the midpoint of a concentration-inhibition curve. As usually defined, the CLint scaled is the rate of metabolic loss divided by the concentration. What is called half-life is how long it takes for the measured level to halve. One may read the share remaining as the share of the starting amount still present when the sample was taken. As usually defined, the Papp A→B is how fast a substance crosses the layer from the apical side.

Some results are limits rather than exact numbers.

In data set [1] the test system is NIH3T3. Put plainly: Antiproliferative activity against mouse NIH3T3 cells assessed as reduction in cell viability incubated for 3 days by CCK-8 assay. The class given is functional, cell-based. The conditions noted are these: NIH3T3, 72 h. Background: Tetrazolium dyes change colour on reduction, which living cells bring about.
The next data set deals with Histone deacetylase 4 (Homo sapiens, UniProt P56524). Put plainly: Inhibition of human HDAC4 expressed in baculovirus expression system in Sf9 cells using Boc-Lys(trifluoroacetyl)-AMC fluorogenic peptide as substrate and measured after 2 hrs by fluorescence based analysis.
Sequence of Histone deacetylase 4 (P56524 whole entry): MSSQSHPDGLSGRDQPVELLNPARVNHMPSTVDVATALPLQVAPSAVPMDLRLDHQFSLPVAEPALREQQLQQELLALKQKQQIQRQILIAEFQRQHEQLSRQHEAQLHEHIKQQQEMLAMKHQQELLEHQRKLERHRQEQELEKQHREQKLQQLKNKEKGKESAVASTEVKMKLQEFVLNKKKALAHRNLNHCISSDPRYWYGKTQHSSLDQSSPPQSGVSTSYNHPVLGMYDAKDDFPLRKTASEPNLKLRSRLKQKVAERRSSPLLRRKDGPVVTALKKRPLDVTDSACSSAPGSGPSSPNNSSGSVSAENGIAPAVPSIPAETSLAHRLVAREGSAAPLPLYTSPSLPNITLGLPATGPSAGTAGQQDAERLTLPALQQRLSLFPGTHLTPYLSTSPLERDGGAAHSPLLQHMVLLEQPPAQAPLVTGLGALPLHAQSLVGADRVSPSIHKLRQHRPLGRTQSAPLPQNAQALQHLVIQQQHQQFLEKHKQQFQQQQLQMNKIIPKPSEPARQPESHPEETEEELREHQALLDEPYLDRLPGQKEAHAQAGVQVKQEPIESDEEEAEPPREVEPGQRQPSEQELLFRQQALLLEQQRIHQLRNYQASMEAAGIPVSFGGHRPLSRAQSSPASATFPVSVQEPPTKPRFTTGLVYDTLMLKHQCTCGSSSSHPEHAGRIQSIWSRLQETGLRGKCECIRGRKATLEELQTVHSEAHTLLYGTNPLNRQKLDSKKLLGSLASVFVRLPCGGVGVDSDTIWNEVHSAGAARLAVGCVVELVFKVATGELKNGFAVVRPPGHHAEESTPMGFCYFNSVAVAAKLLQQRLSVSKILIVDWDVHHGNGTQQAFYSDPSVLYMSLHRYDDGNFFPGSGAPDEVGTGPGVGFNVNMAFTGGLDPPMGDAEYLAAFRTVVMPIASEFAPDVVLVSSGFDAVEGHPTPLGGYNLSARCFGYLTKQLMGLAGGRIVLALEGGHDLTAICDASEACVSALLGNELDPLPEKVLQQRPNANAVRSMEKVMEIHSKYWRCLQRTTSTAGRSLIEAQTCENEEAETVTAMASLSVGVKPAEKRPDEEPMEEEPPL
Data set [2] deals with T1, Protein deacetylase HDAC6 (Homo sapiens, UniProt Q9UBN7).
T1 sequence (Q9UBN7 whole entry): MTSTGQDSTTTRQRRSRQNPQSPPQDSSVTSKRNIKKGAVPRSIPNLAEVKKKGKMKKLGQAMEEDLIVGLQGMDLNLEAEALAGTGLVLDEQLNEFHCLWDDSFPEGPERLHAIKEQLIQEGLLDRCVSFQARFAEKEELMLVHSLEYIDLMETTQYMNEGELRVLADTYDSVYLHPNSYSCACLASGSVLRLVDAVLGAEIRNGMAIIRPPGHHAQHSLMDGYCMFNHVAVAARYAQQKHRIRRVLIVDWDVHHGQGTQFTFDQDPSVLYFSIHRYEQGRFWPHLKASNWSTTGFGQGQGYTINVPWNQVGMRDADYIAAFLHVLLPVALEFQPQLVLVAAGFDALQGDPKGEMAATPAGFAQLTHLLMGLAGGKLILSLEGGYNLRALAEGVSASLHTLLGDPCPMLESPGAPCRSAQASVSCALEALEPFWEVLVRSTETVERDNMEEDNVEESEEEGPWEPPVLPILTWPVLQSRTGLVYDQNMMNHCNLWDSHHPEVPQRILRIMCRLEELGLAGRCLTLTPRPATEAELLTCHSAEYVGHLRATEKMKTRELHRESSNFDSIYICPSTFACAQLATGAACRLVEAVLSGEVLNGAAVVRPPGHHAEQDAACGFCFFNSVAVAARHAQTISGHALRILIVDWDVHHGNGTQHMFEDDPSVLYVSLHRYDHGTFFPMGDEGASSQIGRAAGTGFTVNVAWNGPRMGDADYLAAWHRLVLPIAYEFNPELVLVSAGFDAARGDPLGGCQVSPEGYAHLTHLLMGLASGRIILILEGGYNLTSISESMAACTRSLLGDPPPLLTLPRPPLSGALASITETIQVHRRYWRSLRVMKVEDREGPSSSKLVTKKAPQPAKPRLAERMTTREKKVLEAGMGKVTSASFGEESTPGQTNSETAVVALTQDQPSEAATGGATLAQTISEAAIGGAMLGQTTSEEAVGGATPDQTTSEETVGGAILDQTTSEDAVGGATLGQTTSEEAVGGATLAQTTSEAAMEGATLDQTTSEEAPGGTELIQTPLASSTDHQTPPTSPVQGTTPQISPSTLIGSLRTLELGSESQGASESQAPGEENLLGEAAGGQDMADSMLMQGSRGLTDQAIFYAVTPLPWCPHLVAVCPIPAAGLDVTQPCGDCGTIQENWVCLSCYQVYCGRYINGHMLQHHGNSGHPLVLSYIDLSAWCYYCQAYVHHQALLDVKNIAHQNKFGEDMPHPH
Put plainly: Inhibition of human HDAC6 expressed in baculovirus expression system in Sf9 cells using RHKKAc (379 to 382 residues) fluorogenic peptide as substrate and measured after 2 hrs by fluorescence based analysis.

In another data set the target is T2, Histone deacetylase 11 (Homo sapiens, UniProt Q96DB2).
T2 sequence (Q96DB2 whole entry): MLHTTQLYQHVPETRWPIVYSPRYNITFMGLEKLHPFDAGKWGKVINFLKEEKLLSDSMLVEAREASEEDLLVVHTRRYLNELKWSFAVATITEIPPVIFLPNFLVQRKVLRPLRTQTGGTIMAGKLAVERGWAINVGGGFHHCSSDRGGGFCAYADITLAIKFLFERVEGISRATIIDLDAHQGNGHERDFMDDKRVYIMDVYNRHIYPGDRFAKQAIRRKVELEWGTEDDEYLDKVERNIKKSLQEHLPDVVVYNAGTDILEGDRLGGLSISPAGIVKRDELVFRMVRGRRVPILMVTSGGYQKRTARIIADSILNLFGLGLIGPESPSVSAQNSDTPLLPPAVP
Briefly: Inhibition of human HDAC11 expressed in baculovirus expression system in Sf9 cells using Boc-Lys(trifluoroacetyl)-AMC fluorogenic peptide as substrate and measured after 2 hrs by fluorescence based analysis.

The target of the next data set is T3, Histone deacetylase 8 (Homo sapiens, UniProt Q9BY41).
T3 sequence (Q9BY41 whole entry): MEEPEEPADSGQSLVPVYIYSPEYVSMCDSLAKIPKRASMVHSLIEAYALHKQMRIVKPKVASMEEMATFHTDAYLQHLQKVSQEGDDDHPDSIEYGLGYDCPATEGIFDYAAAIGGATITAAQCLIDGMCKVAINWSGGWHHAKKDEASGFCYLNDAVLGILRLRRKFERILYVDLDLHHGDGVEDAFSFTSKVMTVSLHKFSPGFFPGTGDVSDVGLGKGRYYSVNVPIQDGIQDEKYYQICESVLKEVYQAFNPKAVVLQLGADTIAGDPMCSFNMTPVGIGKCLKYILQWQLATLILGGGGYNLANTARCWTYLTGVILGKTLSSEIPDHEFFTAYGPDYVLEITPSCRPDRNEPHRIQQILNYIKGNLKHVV
Briefly: Inhibition of human HDAC8 expressed in baculovirus expression system in Sf9 cells using RHKAcKAc (379 to 382 residues) fluorogenic peptide as substrate and measured after 2 hrs by fluorescence based analysis.

Data set [3] in a line: Antiproliferative activity against human Pulmonary fibroblast cells assessed as reduction in cell viability by measuring optimal working concentration incubated for 3 days by CCK-8 assay. As to conditions: time 3 day. The class given is functional.
A further data set addresses Histone deacetylase 2 (Homo sapiens, UniProt Q92769). Put plainly: Inhibition of human HDAC2 expressed in baculovirus expression system in Sf9 cells using RHKKAc (379 to 382 residues) fluorogenic peptide as substrate and measured after 2 hrs by fluorescence based analysis.
Data set [4] is described as follows: in vitro. As to conditions: human.
A short description of data set [5]: in vitro. The conditions noted are these: human. This is another data set of the same source.
The next data set has as its target Histone deacetylase 9 (Homo sapiens, UniProt Q9UKV0). Briefly: Inhibition of human HDAC9 expressed in baculovirus expression system in Sf9 cells using Boc-Lys(trifluoroacetyl)-AMC fluorogenic peptide as substrate and measured after 2 hrs by fluorescence based analysis.
Data set [6] deals with NIH3T3. Briefly: Antiproliferative activity against mouse NIH3T3 cells assessed as reduction in cell viability by measuring optimal working concentration incubated for 3 days by CCK-8 assay relative to control. The class given is functional. The conditions noted are these: time 3 day.
Data set [7] is described as follows: Antiproliferative activity against human Pulmonary fibroblast cells assessed as reduction in cell viability incubated for 3 days by CCK-8 assay. The class given is functional, cell-based. The conditions noted are these: 72 h.
A further data set concerns the target Histone deacetylase 5 (Homo sapiens, UniProt Q9UQL6). Briefly: Inhibition of human HDAC5 expressed in baculovirus expression system in Sf9 cells using Boc-Lys(trifluoroacetyl)-AMC fluorogenic peptide as substrate and measured after 2 hrs by fluorescence based analysis.
Data set [8] in a line: Metabolic stability in human liver microsomes assessed as parent compound remaining at 200 uM preincubated for 5 mins followed by NADPH and measured at 60 mins by LC-MS/MS analysis.
Another data set concerns the target Histone deacetylase 3 (Homo sapiens, UniProt O15379). Briefly: Inhibition of human HDAC3 expressed in baculovirus expression system in Sf9 cells using RHKKAc (379 to 382 residues) fluorogenic peptide as substrate and measured after 2 hrs by fluorescence based analysis.
Data set [9] in a line: in vitro. The conditions noted are these: human, Caco-2.
Description: Apparent permeability across apical to basolateral side in human Caco-2 cells at 10 uM preincubated for 10mins followed by compound addition and measured after 90 mins by LC-MS/MS analysis
A further data set deals with Histone deacetylase 1 (Homo sapiens, UniProt Q13547). Put plainly: Inhibition of human HDAC1 expressed in baculovirus expression system in Sf9 cells using RHKKAc (379 to 382 residues) fluorogenic peptide as substrate and measured after 2 hrs by fluorescence based analysis.
Sequence of Histone deacetylase 1 (Q13547 whole entry, the tested form may be a part): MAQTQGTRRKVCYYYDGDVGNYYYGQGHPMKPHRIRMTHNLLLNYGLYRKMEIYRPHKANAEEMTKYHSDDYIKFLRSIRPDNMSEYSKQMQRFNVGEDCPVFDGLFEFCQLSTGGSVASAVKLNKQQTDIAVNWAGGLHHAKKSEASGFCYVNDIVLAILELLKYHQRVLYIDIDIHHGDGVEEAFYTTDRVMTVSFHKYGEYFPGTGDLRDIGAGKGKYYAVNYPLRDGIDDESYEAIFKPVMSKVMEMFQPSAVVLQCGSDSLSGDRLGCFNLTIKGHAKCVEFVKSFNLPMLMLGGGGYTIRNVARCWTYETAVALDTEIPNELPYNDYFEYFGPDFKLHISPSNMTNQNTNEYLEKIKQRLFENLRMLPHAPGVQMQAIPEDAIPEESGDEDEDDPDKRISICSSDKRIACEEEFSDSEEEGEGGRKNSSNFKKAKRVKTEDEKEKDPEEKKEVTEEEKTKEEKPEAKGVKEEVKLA

Sequence of Histone deacetylase 9 (Q9UKV0 whole entry): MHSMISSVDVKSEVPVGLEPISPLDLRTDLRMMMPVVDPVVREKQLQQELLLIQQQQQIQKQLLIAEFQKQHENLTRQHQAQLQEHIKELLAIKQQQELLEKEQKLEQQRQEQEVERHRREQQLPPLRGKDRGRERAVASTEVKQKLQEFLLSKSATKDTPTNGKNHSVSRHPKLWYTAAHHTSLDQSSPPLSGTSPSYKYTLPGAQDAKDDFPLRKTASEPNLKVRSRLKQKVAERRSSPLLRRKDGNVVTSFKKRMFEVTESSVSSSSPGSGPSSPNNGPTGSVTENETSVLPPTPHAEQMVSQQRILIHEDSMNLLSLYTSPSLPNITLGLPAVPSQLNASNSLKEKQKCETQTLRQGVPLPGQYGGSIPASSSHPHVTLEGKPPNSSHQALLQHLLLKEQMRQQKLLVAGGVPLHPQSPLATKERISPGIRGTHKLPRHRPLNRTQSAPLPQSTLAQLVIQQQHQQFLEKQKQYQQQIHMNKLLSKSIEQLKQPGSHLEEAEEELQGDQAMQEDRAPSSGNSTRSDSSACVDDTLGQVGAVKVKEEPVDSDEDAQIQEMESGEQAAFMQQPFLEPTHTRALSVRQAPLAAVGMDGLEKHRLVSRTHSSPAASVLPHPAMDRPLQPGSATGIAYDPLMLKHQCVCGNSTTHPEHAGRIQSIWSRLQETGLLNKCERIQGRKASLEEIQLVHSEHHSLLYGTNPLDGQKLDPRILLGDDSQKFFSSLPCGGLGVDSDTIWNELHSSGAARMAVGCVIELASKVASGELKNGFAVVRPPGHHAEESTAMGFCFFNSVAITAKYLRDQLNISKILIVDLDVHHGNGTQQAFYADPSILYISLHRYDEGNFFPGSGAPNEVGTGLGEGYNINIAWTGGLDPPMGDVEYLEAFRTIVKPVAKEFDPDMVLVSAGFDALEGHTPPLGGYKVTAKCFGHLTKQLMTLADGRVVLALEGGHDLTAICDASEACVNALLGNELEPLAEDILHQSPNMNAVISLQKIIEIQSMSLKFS
Sequence of Histone deacetylase 3 (O15379 whole entry, the tested form may be a part): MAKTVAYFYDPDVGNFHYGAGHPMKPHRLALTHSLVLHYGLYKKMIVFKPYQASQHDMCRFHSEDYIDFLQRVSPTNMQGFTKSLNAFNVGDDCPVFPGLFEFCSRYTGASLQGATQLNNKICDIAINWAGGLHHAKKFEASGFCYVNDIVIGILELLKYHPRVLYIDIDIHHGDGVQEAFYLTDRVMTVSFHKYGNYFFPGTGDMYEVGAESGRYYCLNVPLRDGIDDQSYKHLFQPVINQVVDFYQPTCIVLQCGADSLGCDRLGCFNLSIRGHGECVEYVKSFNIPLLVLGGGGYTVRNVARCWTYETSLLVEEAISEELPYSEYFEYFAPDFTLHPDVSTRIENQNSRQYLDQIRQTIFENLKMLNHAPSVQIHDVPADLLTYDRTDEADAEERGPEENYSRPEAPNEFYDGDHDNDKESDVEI
Sequence of Histone deacetylase 2 (Q92769 whole entry, the tested form may be a part): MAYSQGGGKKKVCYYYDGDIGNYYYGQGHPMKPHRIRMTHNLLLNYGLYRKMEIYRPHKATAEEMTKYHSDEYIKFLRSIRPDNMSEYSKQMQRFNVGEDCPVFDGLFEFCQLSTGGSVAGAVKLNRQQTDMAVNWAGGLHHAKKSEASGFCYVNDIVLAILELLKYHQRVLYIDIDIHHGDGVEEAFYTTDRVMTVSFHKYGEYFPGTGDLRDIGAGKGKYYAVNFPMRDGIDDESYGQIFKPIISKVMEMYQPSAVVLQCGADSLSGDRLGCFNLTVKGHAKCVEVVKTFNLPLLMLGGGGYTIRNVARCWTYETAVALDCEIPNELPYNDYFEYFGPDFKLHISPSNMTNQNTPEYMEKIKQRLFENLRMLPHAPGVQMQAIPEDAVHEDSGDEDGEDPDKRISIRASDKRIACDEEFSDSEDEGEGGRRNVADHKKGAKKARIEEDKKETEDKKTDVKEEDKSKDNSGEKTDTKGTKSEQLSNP
Sequence of Histone deacetylase 5 (Q9UQL6 whole entry): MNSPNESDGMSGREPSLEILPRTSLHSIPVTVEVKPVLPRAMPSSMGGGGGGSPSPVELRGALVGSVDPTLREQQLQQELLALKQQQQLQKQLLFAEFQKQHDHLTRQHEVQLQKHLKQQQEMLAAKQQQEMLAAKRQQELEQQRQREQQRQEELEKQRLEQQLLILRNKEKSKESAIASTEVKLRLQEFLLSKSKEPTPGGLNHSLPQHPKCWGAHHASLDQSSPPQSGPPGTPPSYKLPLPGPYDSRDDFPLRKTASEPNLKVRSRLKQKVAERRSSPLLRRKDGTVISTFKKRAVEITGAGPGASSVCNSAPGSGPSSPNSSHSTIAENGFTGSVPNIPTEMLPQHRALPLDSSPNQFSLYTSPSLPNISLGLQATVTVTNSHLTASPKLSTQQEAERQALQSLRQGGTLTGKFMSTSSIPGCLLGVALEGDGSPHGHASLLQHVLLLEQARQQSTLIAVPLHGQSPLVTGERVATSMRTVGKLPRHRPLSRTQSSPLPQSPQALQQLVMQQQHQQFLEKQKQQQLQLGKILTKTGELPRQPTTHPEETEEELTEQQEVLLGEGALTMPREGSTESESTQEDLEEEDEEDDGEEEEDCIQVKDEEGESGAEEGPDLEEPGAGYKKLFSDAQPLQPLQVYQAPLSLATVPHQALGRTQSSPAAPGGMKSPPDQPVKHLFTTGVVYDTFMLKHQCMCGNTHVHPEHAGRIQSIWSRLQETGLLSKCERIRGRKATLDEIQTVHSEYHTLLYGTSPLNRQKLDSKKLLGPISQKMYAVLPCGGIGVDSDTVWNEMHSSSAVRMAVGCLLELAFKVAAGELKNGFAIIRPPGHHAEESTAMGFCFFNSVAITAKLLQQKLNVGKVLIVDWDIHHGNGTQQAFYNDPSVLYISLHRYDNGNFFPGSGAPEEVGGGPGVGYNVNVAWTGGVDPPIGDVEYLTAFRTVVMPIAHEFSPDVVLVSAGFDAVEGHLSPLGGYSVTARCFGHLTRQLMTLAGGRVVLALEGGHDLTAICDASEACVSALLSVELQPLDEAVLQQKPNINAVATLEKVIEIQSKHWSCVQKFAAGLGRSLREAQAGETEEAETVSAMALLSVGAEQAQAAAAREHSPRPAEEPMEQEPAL

As for `Cc1nc2cc(/C=C/C(=O)NO)ccc2c(=O)n1-c1ccccc1`, the IC50 with NIH3T3 [1] was over 40000 nM; on Histone deacetylase 4, 30000 nM; in data set [2], 62 nM; against Histone deacetylase 11, 4700 nM; on Histone deacetylase 8, 1550 nM; at Histone deacetylase 2, 7380 nM. In addition, the IC50 on Histone deacetylase 9 was 30000 nM; in [7], over 40000 nM; at Histone deacetylase 5 it was 8410 nM; against Histone deacetylase 3 it was 1590 nM. Also, the figures for the MEC (in data set [3]; in the data set with NIH3T3 [6]) were 10 µM and 20 µM, respectively. For the same molecule, in the data set “in vitro [4]” (microsomes), the CLint scaled at 1 h, 200 µM is under 6.1 mL/min/kg. In “in vitro [5]” (microsomes), the half-life at 1 h, 200 µM is over 3.11 h. The share remaining at 1 h, 200 µM in data set [8] (microsomes) was found to be 89.6%.
Consider `O=C(NO)c1ccc(Cn2c(=O)[nH]c(=O)c3cccc(Cl)c32)cc1`, for which the IC50 in the data set with NIH3T3 [1] turned out to be 18600 nM; on Histone deacetylase 4, 516 nM; in [2], 10 nM; against Histone deacetylase 11, 812 nM; against Histone deacetylase 8, 137 nM; at Histone deacetylase 2, 378 nM. Besides, the half-maximal inhibitory concentration (IC50) was determined as 431 nM at Histone deacetylase 9; 8820 nM in [7]; 211 nM on Histone deacetylase 5; 190 nM against Histone deacetylase 1; 302 nM at Histone deacetylase 3. Further, the apparent permeability from apical to basolateral (Papp A→B) at 1.5 h, 10 µM in the data set “in vitro [9]” worked out at 1.4 ×10⁻⁶ cm/s. Further, the MEC in data set [3] worked out at 10 µM; in the data set with NIH3T3 [6] it was 9.7 µM. For the same molecule, the CLint scaled at 1 h, 200 µM in the data set “in vitro [4]” (liver microsomes) is under 6.1 mL/min/kg. In addition, the half-life at 1 h, 200 µM in “in vitro [5]” (liver microsomes) is over 3.11 h. The fraction remaining at 1 h, 200 µM in [8] (liver microsomes) was determined as 100%.

For the origin of these results see ChEMBL document CHEMBL5346972, “Discovery of HDAC6, HDAC8, and 6/8 Inhibitors and Development of Cell-Based Drug Screening Models for the Treatment of TGF-β-Induced Idiopathic Pulmonary Fibrosis” (J Med Chem, 2023).
